The subject of assay [1] is rat anterior pituitary cells. In words: ACTH secretion by anterior pituitary cell cultures in the presence of a challenge dose of ovine CRF (antagonist test). In kind it is cell-based. Conditions: challenge dose of ovine CRF; relative to [D-Phe12,Nle21,38]-r/hCRF(12-41). The source says: A straightforward assay using rat anterior pituitary cells in monolayer culture can be carried out to determine whether a candidate peptide thereof will function as a CRF agonist and stimulate ACTH secretion by activating CRF receptors on such cells. The procedure which is used is that generally set forth in Endocrinology, 91, supra. A very similar assay is used to test for antagonistic properties, using a challenge dose of oCRF or the like.
An in vivo test measuring elevation of mean arterial blood pressure as a result of iv injection is also simply and straightforwardly performed.

For assay [2], the system named is mammalian mean arterial blood pressure. Description: in vivo test measuring elevation of mean arterial blood pressure as a result of iv injection. Conditions: result in words; indicative of a Ucn antagonist. The source says: The peptide, Ucn(11-40), having the amino acid sequence (see SEQ ID NO: 8): […] is synthesized in the manner described in Example I. To evaluate the biological activity of a candidate peptide as a Ucn antagonist (which will be indicative of its effective binding to CRF receptors), the previously mentioned assay from Endocrinology, 91, supra, is run in the presence of a challenge dose of ovine CRF. […] An in vivo test measuring elevation of mean arterial blood pressure as a result of iv injection is also simply and straightforwardly performed.

Bridges are numbered along the chain shown (N, C = ends). [ ]: non-standard residue; d: D form.

On to “H-D-Phe-His-Leu-Leu-Arg-Thr-Leu-Leu-Glu-Leu-Ala-Arg-Thr-Gln-Ser-Gln-Arg-Glu-Arg-Ala-Glu-Gln-Asn-Arg-Ile-Ile-Phe-Asp-Ser-Val-NH2 (H-[dF]HLLRTLLELARTQSQRERAEQNRIIFDSV-NH2; SMILES CC[C@H](C)[C@H](NC(=O)[C@H](CCCNC(=N)N)NC(=O)[C@H](CC(N)=O)NC(=O)[C@H](CCC(N)=O)NC(=O)[C@H](CCC(=O)O)NC(=O)[C@H](C)NC(=O)[C@H](CCCNC(=N)N)NC(=O)[C@H](CCC(=O)O)NC(=O)[C@H](CCCNC(=N)N)NC(=O)[C@H](CCC(N)=O)NC(=O)[C@H](CO)NC(=O)[C@H](CCC(N)=O)NC(=O)[C@@H](NC(=O)[C@H](CCCNC(=N)N)NC(=O)[C@H](C)NC(=O)[C@H](CC(C)C)NC(=O)[C@H](CCC(=O)O)NC(=O)[C@H](CC(C)C)NC(=O)[C@H](CC(C)C)NC(=O)[C@@H](NC(=O)[C@H](CCCNC(=N)N)NC(=O)[C@H](CC(C)C)NC(=O)[C@H](CC(C)C)NC(=O)[C@H](Cc1c[nH]cn1)NC(=O)[C@H](N)Cc1ccccc1)[C@@H](C)O)[C@@H](C)O)C(=O)N[C@H](C(=O)N[C@@H](Cc1ccccc1)C(=O)N[C@@H](CC(=O)O)C(=O)N[C@@H](CO)C(=O)N[C@H](C(N)=O)C(C)C)[C@@H](C)CC) [[D-Phe^11]-Ucn(11-40)]”, for which the “inhibition of ACTH secretion in vitro, times as effective as the Standard Antagonist (confidence limits)” value (shortened to “inhibition … (confidence limits)”) in assay [1] is 0.551 (0.333-0.857). For the same substance, in assay [2], the “vasoconstrictive activity causing elevation of mean arterial blood pressure” value is “significant mammalian vasoconstrictive activity”.

Take “H-D-Phe-His-Leu-Leu-Arg-Thr-Leu-Leu-Glu-Leu-Ala-Arg-Thr-Gln-Ser-Gln-Arg-Glu-Glu-Ala-D-Glu-Lys-Asn-Arg-Ile-Ile-Phe-Asp-Ser-Val-NH2 (H-[dF]HLLRTLLELARTQSQREEA[dE]KNRIIFDSV-NH2; lactam 19-22 (inferred))”: the “inhibition … (confidence limits)” value in assay [1] was 4.72 (2.19-10.00). For the same substance, the “vasoconstrictive activity causing elevation of mean arterial blood pressure” value in assay [2] is “significant mammalian vasoconstrictive activity”.

Consider “H-D-Phe-His-Leu-Leu-Arg-Thr-Leu-Leu-Glu-Leu-Ala-Arg-Thr-Gln-Ser-Gln-Arg-Glu-Glu-Ala-Glu-Lys-Asn-Arg-Ile-Ile-Phe-Asp-Ser-Val-NH2 (H-[dF]HLLRTLLELARTQSQREEAEKNRIIFDSV-NH2; lactam 19-22 (inferred))”, for which, in assay [1], the “inhibition … (confidence limits)” value is listed as 10.34 (4.27-25.58). In assay [2], the “vasoconstrictive activity causing elevation of mean arterial blood pressure” value was “significant mammalian vasoconstrictive activity”.

With “H-D-Pro-D-Phe-His-Leu-Leu-Arg-Thr-Leu-Leu-Glu-Leu-Ala-Arg-Thr-Gln-Ser-Gln-Arg-Glu-Glu-Ala-D-Glu-Lys-Asn-Arg-Ile-Ile-Phe-Asp-Ser-Val-NH2 (H-[dP][dF]HLLRTLLELARTQSQREEA[dE]KNRIIFDSV-NH2; lactam 20-23; SMILES CC[C@H](C)[C@H](NC(=O)[C@H](CCCNC(=N)N)NC(=O)[C@H](CC(N)=O)NC(=O)[C@@H]1CCCCNC(=O)CC[C@H](NC(=O)[C@H](CCC(=O)O)NC(=O)[C@H](CCCNC(=N)N)NC(=O)[C@H](CCC(N)=O)NC(=O)[C@H](CO)NC(=O)[C@H](CCC(N)=O)NC(=O)[C@@H](NC(=O)[C@H](CCCNC(=N)N)NC(=O)[C@H](C)NC(=O)[C@H](CC(C)C)NC(=O)[C@H](CCC(=O)O)NC(=O)[C@H](CC(C)C)NC(=O)[C@H](CC(C)C)NC(=O)[C@@H](NC(=O)[C@H](CCCNC(=N)N)NC(=O)[C@H](CC(C)C)NC(=O)[C@H](CC(C)C)NC(=O)[C@H](Cc2c[nH]cn2)NC(=O)[C@@H](Cc2ccccc2)NC(=O)[C@H]2CCCN2)[C@@H](C)O)[C@@H](C)O)C(=O)N[C@@H](C)C(=O)N[C@H](CCC(=O)O)C(=O)N1)C(=O)N[C@H](C(=O)N[C@@H](Cc1ccccc1)C(=O)N[C@@H](CC(=O)O)C(=O)N[C@@H](CO)C(=O)N[C@H](C(N)=O)C(C)C)[C@@H](C)CC)”, the “inhibition … (confidence limits)” value in assay [1] is reported as 4.99 (2.26-11.55). For the same substance, the “vasoconstrictive activity causing elevation of mean arterial blood pressure” value in assay [2] was “significant mammalian vasoconstrictive activity”.

The record behind these values is patent US20030032587A1, “Urocortin peptides” (The Salk Institute for Biological Studies, priority 1995, published 2003).
